Measured values taken from patent US5141926A, “Erythromycin derivatives” (Abbott Laboratories, priority 1990, dated 1992).
In brackets after ≈: the same amount, converted by molar mass. Like-named read-outs stand apart in the source and are kept apart here.

Tests used:
[1] = test system: Enterococcus faecium ATCC 8043; experiment: Agar plate dilution MIC; format: cell-based
Experimental: (§1) 6-Deoxyerythromycins A, B and C and 6-deoxy-15-norerythromycin B were tested for antibacterial activity using a standard agar plate dilution method in brain heart infusion broth. Erythromycin A was utilized as a control.

[2] = test system: Eschericha coli SS; experiment: Agar plate dilution MIC; format: cell-based; details: brain heart infusion broth
Experimental: as §1

[3] = test system: Escherichia coli JUHL; experiment: Agar plate dilution MIC; format: cell-based
Experimental: as §1

[4] = test system: Micrococcus luteus ATCC 9341; experiment: Agar plate dilution MIC; format: cell-based
Experimental: as §1

[5] = test system: Staphylococcus aureus ATCC 6538P; experiment: Agar plate dilution MIC; format: cell-based; details: ATCC6538P
Experimental: as §1

[6] = test system: Staphylococcus aureus CMX 553; experiment: Agar plate dilution MIC; format: cell-based
Experimental: as §1

[7] = test system: Staphylococcus aureus NCTC 10649; experiment: Agar plate dilution MIC; format: cell-based
Experimental: as §1

[8] = test system: Staphylococcus epidermis 3519; experiment: Agar plate dilution MIC; format: cell-based; details: brain heart infusion broth
Experimental: as §1

[9] = test system: Streptococcus agalactiae CMX 508; experiment: Agar plate dilution MIC; format: cell-based
Experimental: as §1

[10] = test system: Streptococcus pyogenes EES61; experiment: Agar plate dilution MIC; format: cell-based
Experimental: as §1

[11] = test system: Staphylococcus aureus 10649; experiment: Acute mouse protection test; format: in vivo, female CF-1 mice; details: read-out: ED50 (Dose Providing 50% Survival)
Experimental: (§2) The in vivo activity of 6-deoxyerythromycin A was evaluated using the acute mouse protection test. Mouse mortality was used to calcualte an ED50 value, i.e., the dose of drug required to protect 50% of the test animals against death due to inoculum challenge.
(§3) The acute mouse protection test was conducted as described by Fernandes, et al. (Antimicrob. Agents Chemother. 29:201-208(1986)) on female CF-1 mice weighing 20-25 grams. The mice were injected intraperitoneally with bacterial suspensions at a concentration 100 times that producing an LD50 response. 6-Deoxyerythromycin A or erythromycin A were administered orally at 1 and 5 hours post-infection. The median effective doses for the cumulative mortalities on the sixth day after infection were calculated using a trimmed logit analysis (Hamilton, et. al., Environ Sci. Technol. 11:714-719 (1977)).

[12] = test system: Streptococcus pneumoniae 6303; experiment: Acute mouse protection test; format: in vivo, female CF-1 mice; details: read-out: ED50 (Dose Providing 50% Survival)
Experimental: as §2, §3

[13] = test system: Streptococcus pyogenes C203; experiment: Acute mouse protection test; format: in vivo, female CF-1 mice; details: read-out: ED50 (Dose Providing 50% Survival)
Experimental: as §2, §3

[14] = test system: murine infections of Staphylococci and Streptococci; experiment: Acute mouse protection test, overall result; format: in vivo, female CF-1 mice; details: orally administered
Experimental: as §2, §3

[15] = physchem; details: citric acid solution, pH 2.2
Experimental: The relative acid stability of one of the compounds of the present invention was compared to that of erythromycin A. 11.8 mg of 6-deoxyerythromycin A was suspended in citric acid solution (pH 2.2) and allowed to remain at 37° C. for 8 hours. Aliquots were removed at 2, 5, 10, and 20 minutes and at 1, 2, 3, 4, 5, 6 and 8 hours. Degradation was quenced by adjusting each aliquot to pH 9.6 with 7.5 N NH4 OH, followed by extraction with methylene chloride.
10.5 mg of erythromycin A was identically suspended in critic acid solution (pH 2.0) and allowed to remain at 37° C. for 10 minutes. Aliquots were removed at 2, 5 and 10 minutes. Degradation was quenched by adjusting each aliquot to pH 9.6 with 7.5 N NH4 OH, followed by extraction with methylene chloride.

[16] = ATCC8043, Table 5, brain heart infusion broth, read-out: MIC value
[17] = Table 5, brain heart infusion broth
[18] = ATCC9341, Table 5, brain heart infusion broth, read-out: MIC value
[19] = Table 5, brain heart infusion broth, read-out: MIC value
[20] = CMX553, Table 5, brain heart infusion broth, read-out: MIC value
[21] = NCTC10649, Table 5, brain heart infusion broth, read-out: MIC value
[22] = Staphylococcus, 3519, Table 5, read-out: MIC value
[23] = CMX508, Table 5, brain heart infusion broth, read-out: MIC value
[24] = EES61, Table 5, brain heart infusion broth, read-out: MIC value
[25] = ATCC8043, Table 4, brain heart infusion broth, read-out: MIC value
[26] = Table 4, brain heart infusion broth
[27] = ATCC9341, Table 4, brain heart infusion broth, read-out: MIC value
[28] = Table 4, brain heart infusion broth, read-out: MIC value
[29] = CMX553, Table 4, brain heart infusion broth, read-out: MIC value
[30] = NCTC10649, Table 4, brain heart infusion broth, read-out: MIC value
[31] = Staphylococcus, 3519, Table 4, read-out: MIC value
[32] = CMX508, Table 4, brain heart infusion broth, read-out: MIC value
[33] = EES61, Table 4, brain heart infusion broth, read-out: MIC value

For `CO[C@]1(C)C[C@H](O[C@H]2[C@H](C)[C@@H](O[C@@H]3O[C@H](C)C[C@H](N(C)C)[C@H]3O)[C@@H](C)C[C@@H](C)C(=O)[C@H](C)[C@@H](O)[C@@H](C)[C@@H](C)OC(=O)[C@@H]2C)O[C@@H](C)[C@@H]1O` [6-Deoxy-15-norerythromycin B], the MIC [1, 16] was 2 µg/mL (≈ 2.91 µM), the MIC ([2]; Table 5) was 2 µg/mL (≈ 2.91 µM) and the MIC [3, 17] was > 128 µg/mL. It also gave an MIC [4, 18] of 0.25 µg/mL (≈ 0.363 µM), an MIC [5, 19] of 2 µg/mL (≈ 2.91 µM) and an MIC [6, 20] of 2 µg/mL (≈ 2.91 µM). For the same compound, the MIC [7, 21] was 2 µg/mL (≈ 2.91 µM), the MIC [8, 22] was 2 µg/mL (≈ 2.91 µM) and the MIC [9, 23] was 0.5 µg/mL (≈ 0.727 µM). It also gave an MIC [10, 24] of 0.25 µg/mL (≈ 0.363 µM).
With `CC[C@H]1OC(=O)[C@H](C)[C@@H](O[C@H]2C[C@@](C)(OC)[C@@H](O)[C@H](C)O2)[C@H](C)[C@@H](O[C@@H]2O[C@H](C)C[C@H](N(C)C)[C@H]2O)[C@@H](C)C[C@@H](C)C(=O)[C@H](C)[C@@H](O)[C@]1(C)O` [6-Deoxyerythromycin A] the MIC [1, 25] was 0.25 µg/mL (≈ 0.348 µM), the MIC ([2]; Table 4) was 2 µg/mL (≈ 2.79 µM) and the MIC [3, 26] was > 128 µg/mL. For the same compound, the MIC [4, 27] was 0.06 µg/mL (≈ 0.0836 µM), the MIC [5, 28] was 1 µg/mL (≈ 1.39 µM) and the MIC [6, 29] was 0.5 µg/mL (≈ 0.696 µM). The MIC [7, 30] was 1 µg/mL (≈ 1.39 µM), the MIC [8, 31] was 1 µg/mL (≈ 1.39 µM) and the MIC [9, 32] was 0.12 µg/mL (≈ 0.167 µM). It also gave an MIC [10, 33] of 0.25 µg/mL (≈ 0.348 µM), an ED50 ([11]; Staphylococcus aureus, 10649, 144 h, oral, 1 and 5 hours post-infection, intraperitoneal inoculum 100 times LD50, mortality on sixth day) of 90.8 mg/kg and an ED50 ([12]; Streptococcus pneumoniae, 6303, 144 h, oral, 1 and 5 hours post-infection, intraperitoneal inoculum 100 times LD50, mortality on sixth day) of 24.9 mg/kg. The ED50 ([13]; C203, 144 h, oral, 1 and 5 hours post-infection, intraperitoneal inoculum 100 times LD50, mortality on sixth day) was 32.4 mg/kg, the “effectiveness compared with erythromycin A” value [14] was “as effective as erythromycin A” and the remaining at 4 h [15] was > 50%. It also gave a remaining at 8 h [15] of ~40%.
For `CC[C@H]1OC(=O)[C@H](C)[C@@H](O[C@H]2C[C@@](C)(OC)[C@@H](O)[C@H](C)O2)[C@H](C)[C@@H](O[C@@H]2O[C@H](C)C[C@H](N(C)C)[C@H]2O)[C@@H](C)C[C@@H](C)C(=O)[C@H](C)[C@@H](O)[C@H]1C` [6-Deoxyerythromycin B], the MIC [1, 16] was 0.5 µg/mL (≈ 0.712 µM), the MIC ([2]; Table 5) was 4 µg/mL (≈ 5.7 µM) and the MIC [3, 17] was > 128 µg/mL. For the same compound, the MIC [4, 18] was 0.12 µg/mL (≈ 0.171 µM), the MIC [5, 19] was 1 µg/mL (≈ 1.42 µM) and the MIC [6, 20] was 1 µg/mL (≈ 1.42 µM). For the same compound, the MIC [7, 21] was 1 µg/mL (≈ 1.42 µM), the MIC [8, 22] was 1 µg/mL (≈ 1.42 µM) and the MIC [9, 23] was 0.25 µg/mL (≈ 0.356 µM). The MIC [10, 24] was 0.12 µg/mL (≈ 0.171 µM).
For `CC[C@H]1OC(=O)[C@H](C)[C@@H](O[C@H]2C[C@@](C)(O)[C@@H](O)[C@H](C)O2)[C@H](C)[C@@H](O[C@@H]2O[C@H](C)C[C@H](N(C)C)[C@H]2O)[C@@H](C)C[C@@H](C)C(=O)[C@H](C)[C@@H](O)[C@]1(C)O` [6-Deoxyerythromycin C], the MIC [1, 25] was 0.25 µg/mL (≈ 0.355 µM), the MIC ([2]; Table 4) was 16 µg/mL (≈ 22.7 µM) and the MIC [3, 26] was > 128 µg/mL. The MIC [4, 27] was 0.25 µg/mL (≈ 0.355 µM), the MIC [5, 28] was 2 µg/mL (≈ 2.84 µM) and the MIC [6, 29] was 4 µg/mL (≈ 5.68 µM). For the same compound, the MIC [7, 30] was 2 µg/mL (≈ 2.84 µM), the MIC [8, 31] was 4 µg/mL (≈ 5.68 µM) and the MIC [9, 32] was 0.25 µg/mL (≈ 0.355 µM). For the same compound, the MIC [10, 33] was 0.5 µg/mL (≈ 0.71 µM).
For `CC[C@H]1OC(=O)[C@H](C)[C@@H](O[C@H]2C[C@@](C)(OC)[C@@H](O)[C@H](C)O2)[C@H](C)[C@@H](O[C@@H]2O[C@H](C)C[C@H](N(C)C)[C@H]2O)[C@](C)(O)C[C@@H](C)C(=O)[C@H](C)[C@@H](O)[C@]1(C)O` [Erythromycin A, reference compound], the MIC ([1]; ATCC8043, read-out: MIC value, Table 4, brain heart infusion broth) was 0.12 µg/mL (≈ 0.164 µM), the MIC ([1]; ATCC8043, read-out: MIC value, Table 5, brain heart infusion broth) was 0.06 µg/mL (≈ 0.0818 µM) and the MIC ([2]; Table 4) was 1 µg/mL (≈ 1.36 µM). It also gave an MIC value ([2]; Table 5) of 1 µg/mL (≈ 1.36 µM), an MIC [3, 26] of 64 µg/mL (≈ 87.2 µM) and an MIC [3, 17] of 32 µg/mL (≈ 43.6 µM). For the same compound, the MIC ([4]; ATCC9341, read-out: MIC value, Table 4, brain heart infusion broth) was 0.03 µg/mL (≈ 0.0409 µM), the MIC ([4]; ATCC9341, read-out: MIC value, Table 5, brain heart infusion broth) was 0.015 µg/mL (≈ 0.0204 µM) and the MIC ([5]; read-out: MIC value, Table 4, brain heart infusion broth) was 0.25 µg/mL (≈ 0.341 µM). For the same compound, the MIC ([5]; read-out: MIC value, Table 5, brain heart infusion broth) was 0.12 µg/mL (≈ 0.164 µM), the MIC ([6]; CMX553, read-out: MIC value, Table 4, brain heart infusion broth) was 0.25 µg/mL (≈ 0.341 µM) and the MIC ([6]; CMX553, read-out: MIC value, Table 5, brain heart infusion broth) was 0.12 µg/mL (≈ 0.164 µM). The MIC ([7]; NCTC10649, read-out: MIC value, Table 4, brain heart infusion broth) was 0.25 µg/mL (≈ 0.341 µM), the MIC ([7]; NCTC10649, read-out: MIC value, Table 5, brain heart infusion broth) was 0.12 µg/mL (≈ 0.164 µM) and the MIC ([8]; Staphylococcus, 3519, read-out: MIC value, Table 4) was 0.5 µg/mL (≈ 0.681 µM). For the same compound, the MIC ([8]; Staphylococcus, 3519, read-out: MIC value, Table 5) was 0.12 µg/mL (≈ 0.164 µM), the MIC ([9]; CMX508, read-out: MIC value, Table 4, brain heart infusion broth) was 0.06 µg/mL (≈ 0.0818 µM) and the MIC ([9]; CMX508, read-out: MIC value, Table 5, brain heart infusion broth) was 0.03 µg/mL (≈ 0.0409 µM). For the same compound, the MIC ([10]; EES61, read-out: MIC value, Table 4, brain heart infusion broth) was 0.03 µg/mL (≈ 0.0409 µM), the MIC ([10]; EES61, read-out: MIC value, Table 5, brain heart infusion broth) was 0.015 µg/mL (≈ 0.0204 µM) and the ED50 ([11]; Staphylococcus aureus, 10649, po, 144 h) was 120 mg/kg. The ED50 ([12]; Streptococcus pneumoniae, 6303, po, 144 h) was 24.8 mg/kg, the ED50 ([13]; C203, po, 144 h) was 54.5 mg/kg and the remaining at 2 min [15] was < 10%.
`CC[C@H]1OC(=O)[C@H](C)[C@@H](O[C@H]2C[C@@](C)(OC)[C@@H](O)[C@H](C)O2)[C@H](C)[C@@H](O[C@@H]2O[C@H](C)C[C@H](N(C)C)[C@H]2O)[C@](C)(O)C[C@@H](C)C(=O)[C@H](C)[C@@H](O)[C@H]1C` [Erythromycin B, reference compound] showed an MIC [1, 16] of 0.12 µg/mL (≈ 0.167 µM), an MIC ([2]; Table 5) of 2 µg/mL (≈ 2.79 µM) and an MIC [3, 17] of 32 µg/mL (≈ 44.6 µM). It also gave an MIC [4, 18] of 0.03 µg/mL (≈ 0.0418 µM), an MIC [5, 19] of 0.25 µg/mL (≈ 0.348 µM) and an MIC [6, 20] of 0.25 µg/mL (≈ 0.348 µM). It also gave an MIC [7, 21] of 0.25 µg/mL (≈ 0.348 µM), an MIC [8, 22] of 0.25 µg/mL (≈ 0.348 µM) and an MIC [9, 23] of 0.03 µg/mL (≈ 0.0418 µM). For the same compound, the MIC [10, 24] was 0.03 µg/mL (≈ 0.0418 µM).
